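Grown in 96-well plates, cells were treated for 48 hours with each compound at five concentrations. Insufficient inhibition: endpoint recorded as highest concentration tested. TGI denotes the concentration required for complete inhibition of growth.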
Columns and labels:
Test in all cases: NCI tumour cell line growth inhibition, 48 h
NCI/ADR-RES ovarian = system: NCI/ADR-RES ovarian
COLO 205 colon = system: COLO 205 colon
OVCAR-5 ovarian = system: OVCAR-5 ovarian
MALME-3M melanoma = system: MALME-3M melanoma
EKVX NSCLC = system: EKVX NSCLC
HOP-62 NSCLC = system: HOP-62 NSCLC
HCC-2998 colon = system: HCC-2998 colon
HS 578T breast = system: HS 578T breast
A549 NSCLC = system: A549 NSCLC
HOP-92 NSCLC = system: HOP-92 NSCLC
SNB-75 CNS = system: SNB-75 CNS
786-0 renal = system: 786-0 renal
MDA-MB-435 = system: MDA-MB-435
SF-295 CNS = system: SF-295 CNS
MCF7 breast = system: MCF7 breast
CCRF-CEM leukemia = system: CCRF-CEM leukemia
HCT-116 colon = system: HCT-116 colon
KM12 colon = system: KM12 colon
MOLT-4 leukemia = system: MOLT-4 leukemia
NCI-H23 lung = system: NCI-H23 lung
OVCAR-4 ovarian = system: OVCAR-4 ovarian
MDA-N = system: MDA-N
SR leukemia = system: SR leukemia
K-562 leukemia = system: K-562 leukemia
SF-539 CNS = system: SF-539 CNS
MDA-MB-231 breast = system: MDA-MB-231 breast
SK-OV-3 ovarian = system: SK-OV-3 ovarian
SW-620 colon = system: SW-620 colon
IGROV1 ovarian = system: IGROV1 ovarian
NCI-H226 lung = system: NCI-H226 lung
RXF 393 renal = system: RXF 393 renal
UACC-62 melanoma = system: UACC-62 melanoma
BT-549 breast = system: BT-549 breast
HT29 colon = system: HT29 colon
NCI-H522 lung = system: NCI-H522 lung
CAKI-1 renal = system: CAKI-1 renal
PC-3 prostate = system: PC-3 prostate
U251 CNS = system: U251 CNS
HCT-15 colon = system: HCT-15 colon
SNB-19 CNS = system: SNB-19 CNS
SK-MEL-5 melanoma = system: SK-MEL-5 melanoma
SN12C renal = system: SN12C renal
ACHN renal = system: ACHN renal
TK-10 renal = system: TK-10 renal
SK-MEL-28 melanoma = system: SK-MEL-28 melanoma
T-47D breast = system: T-47D breast
DU-145 prostate = system: DU-145 prostate
UACC-257 melanoma = system: UACC-257 melanoma
SF-268 CNS = system: SF-268 CNS
OVCAR-8 ovarian = system: OVCAR-8 ovarian
M14 melanoma = system: M14 melanoma
OVCAR-3 ovarian = system: OVCAR-3 ovarian
NCI-H460 lung = system: NCI-H460 lung
UO-31 renal = system: UO-31 renal

SMILES: CC(=O)Oc1ccc2c(c1)[nH]c1c3ccc(OC(C)=O)cc3oc(=O)c21
- TGI (NCI/ADR-RES ovarian): > 100 µM
- TGI (COLO 205 colon): > 100 µM
- TGI (OVCAR-5 ovarian): > 100 µM
- TGI (MALME-3M melanoma): > 100 µM
- TGI (EKVX NSCLC): 86.1 µM
- TGI (HOP-62 NSCLC): > 100 µM
- TGI (HCC-2998 colon): 67.7 µM
- TGI (HS 578T breast): > 100 µM
- TGI (A549 NSCLC): > 100 µM
- TGI (HOP-92 NSCLC): > 100 µM
- TGI (SNB-75 CNS): > 100 µM
- TGI (786-0 renal): > 100 µM
- TGI (MDA-MB-435): > 100 µM
- TGI (SF-295 CNS): > 100 µM
- TGI (MCF7 breast): 90.4 µM
- TGI (CCRF-CEM leukemia): 98.8 µM
- TGI (HCT-116 colon): 78.1 µM
- TGI (KM12 colon): > 100 µM
- TGI (MOLT-4 leukemia): > 100 µM
- TGI (NCI-H23 lung): > 100 µM
- TGI (OVCAR-4 ovarian): > 100 µM
- TGI (MDA-N): > 100 µM
- TGI (SR leukemia): 71.7 µM
- TGI (K-562 leukemia): > 100 µM
- TGI (SF-539 CNS): > 100 µM
- TGI (MDA-MB-231 breast): 88.2 µM
- TGI (SK-OV-3 ovarian): > 100 µM
- TGI (SW-620 colon): > 100 µM
- TGI (IGROV1 ovarian): > 100 µM
- TGI (NCI-H226 lung): 76.5 µM
- TGI (RXF 393 renal): 68.2 µM
- TGI (UACC-62 melanoma): > 100 µM
- TGI (BT-549 breast): 68.2 µM
- TGI (HT29 colon): > 100 µM
- TGI (NCI-H522 lung): > 100 µM
- TGI (CAKI-1 renal): > 100 µM
- TGI (PC-3 prostate): > 100 µM
- TGI (U251 CNS): > 100 µM
- TGI (HCT-15 colon): > 100 µM
- TGI (SNB-19 CNS): > 100 µM
- TGI (SK-MEL-5 melanoma): 68.9 µM
- TGI (SN12C renal): > 100 µM
- TGI (ACHN renal): 78.3 µM
- TGI (TK-10 renal): > 100 µM
- TGI (SK-MEL-28 melanoma): > 100 µM
- TGI (T-47D breast): 48.9 µM
- TGI (DU-145 prostate): > 100 µM
- TGI (UACC-257 melanoma): > 100 µM
- TGI (SF-268 CNS): 75 µM
- TGI (OVCAR-8 ovarian): > 100 µM
- TGI (M14 melanoma): > 100 µM
- TGI (OVCAR-3 ovarian): 71.9 µM
- TGI (NCI-H460 lung): > 100 µM
- TGI (UO-31 renal): > 100 µM
